Measurements from PubChem BioAssay (NCI).
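Briefly, cells in 96-well plates were exposed to five compound concentrations for 48 h, and endpoints were estimated by linear interpolation. TGI: total growth inhibition.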

How the values were obtained:
Test in all cases: NCI-60 cell line screen, 48 h
UACC-62 melanoma = test system: UACC-62 melanoma
U251 CNS = test system: U251 CNS
MOLT-4 leukemia = test system: MOLT-4 leukemia
SN12C renal = test system: SN12C renal
UACC-257 melanoma = test system: UACC-257 melanoma
HOP-62 NSCLC = test system: HOP-62 NSCLC
SK-MEL-28 melanoma = test system: SK-MEL-28 melanoma
M14 melanoma = test system: M14 melanoma
OVCAR-5 ovarian = test system: OVCAR-5 ovarian
NCI-H23 lung = test system: NCI-H23 lung
SF-268 CNS = test system: SF-268 CNS
PC-3 prostate = test system: PC-3 prostate
SNB-19 CNS = test system: SNB-19 CNS
SNB-75 CNS = test system: SNB-75 CNS
RXF 393 renal = test system: RXF 393 renal
TK-10 renal = test system: TK-10 renal
NCI-H226 lung = test system: NCI-H226 lung
MDA-MB-435 = test system: MDA-MB-435
HT29 colon = test system: HT29 colon
A549 NSCLC = test system: A549 NSCLC
HS 578T breast = test system: HS 578T breast
SK-MEL-5 melanoma = test system: SK-MEL-5 melanoma
HL-60(TB) leukemia = test system: HL-60(TB) leukemia
HCC-2998 colon = test system: HCC-2998 colon
ACHN renal = test system: ACHN renal
COLO 205 colon = test system: COLO 205 colon
HOP-92 NSCLC = test system: HOP-92 NSCLC
SK-MEL-2 melanoma = test system: SK-MEL-2 melanoma
NCI-H460 lung = test system: NCI-H460 lung
CCRF-CEM leukemia = test system: CCRF-CEM leukemia
NCI-H522 lung = test system: NCI-H522 lung
SF-539 CNS = test system: SF-539 CNS
A498 renal = test system: A498 renal
HCT-15 colon = test system: HCT-15 colon
786-0 renal = test system: 786-0 renal
MDA-MB-231 breast = test system: MDA-MB-231 breast
HCT-116 colon = test system: HCT-116 colon
SF-295 CNS = test system: SF-295 CNS
BT-549 breast = test system: BT-549 breast
RPMI-8226 leukemia = test system: RPMI-8226 leukemia
T-47D breast = test system: T-47D breast
DU-145 prostate = test system: DU-145 prostate
EKVX NSCLC = test system: EKVX NSCLC
OVCAR-4 ovarian = test system: OVCAR-4 ovarian
K-562 leukemia = test system: K-562 leukemia
SK-OV-3 ovarian = test system: SK-OV-3 ovarian
OVCAR-8 ovarian = test system: OVCAR-8 ovarian
IGROV1 ovarian = test system: IGROV1 ovarian
OVCAR-3 ovarian = test system: OVCAR-3 ovarian
UO-31 renal = test system: UO-31 renal
MCF7 breast = test system: MCF7 breast
KM12 colon = test system: KM12 colon
NCI/ADR-RES ovarian = test system: NCI/ADR-RES ovarian
CAKI-1 renal = test system: CAKI-1 renal
SW-620 colon = test system: SW-620 colon

Measured: TGI

COc1ccc2c(c1)C(=O)OCCC2
> 100 µM: all assays above
